Legend:
[1] = rat; cited from earlier work
[2] = 0.05 M phosphate-buffered saline (PBS) (pH 7.4) at 37° C.; cited from earlier work
[3] = Body weight / toxicity in the A498-luc xenograft study; type: in vivo, mouse
Method: (§1) To study the toxicity and therapeutic effect, in vivo studies were conducted on the micellar nanocomplexes. A subcutaneous renal cell carcinoma model was established. Adult female Balb/c athymic, immunoincompetent nude mice (average weight=19 g, age=6-8 weeks) were used.
To study the therapeutic effect of SU/PEG-EGCG micellar nanocomplexes by intravenous injection, a xenograft tumor model was established by inoculating 6×10^6 A498-luc cells subcutaneously into the root of the left thigh of the mouse. On day 6 after tumor inoculation, the animals were divided into four groups for tail vein injection of various solutions (n=8 per group) twice weekly for 5 weeks, while one group received daily SU gavaging at 60 mg/kg. For the tail vein injection, a volume of 200 μl of sample solution was used.
To monitor bioluminescent signals from A498-luc cells, isoflurane gas-anesthetized animals were injected intraperitoneally with 200 μl of D-luciferin (5 mg ml^−1, Promega) in PBS, and placed on a warmed stage (30° C.) inside the camera box of the IVIS imaging system (Xenogen, Alameda, Calif., USA) with a CCD camera. […] Images and measurements of luminescent signals were acquired and analyzed with the Xenogen imaging software v3.2 and quantified as photons/s. Tumor size and body weight were measured on a weekly basis. […]

[4] = Body weight in the ACHN xenograft oral study; type: in vivo, mouse; conditions: oral gavage daily
Method: as §1
To investigate the therapeutic effect of SU/PEG-mEGCG MNC via oral administration, a xenograft tumor model was established by inoculating 4×10^6 ACHN cells suspended in 100 μl of PBS and 100 μl of Matrigel (BD Bioscience) subcutaneously into the root of the right thigh of the mouse. Once the tumors reached a volume of 200 mm^3, the animals were divided into four groups for oral gavage of various solutions (n=8 per group) daily for 5 weeks: control (citrate buffer pH5), SU/PEG-mEGCG 8:1 (SU at 15 mg/kg), SU at 15 and 40 mg/kg. Tumors were measured twice weekly with a digital caliper, and the tumor volumes (mm^3) were calculated from the following formula: volume=(length×width^2)/2 (FIGS. 16 and 17).

Row | Compound | effect of EGCG administration on plasma concentrations of SU [1] | half-life [2] | body weight ([3]; daily oral gavage 60 mg/kg, one week after commencement of treatment) | toxicity of oral dose ([3]; mouse, in vivo, po, 60 mg/kg/day) | weight loss ([4]; SU at 15 mg/kg) | body weight ([4]; SU at 40 mg/kg)
1 | O=C(O[C@@H]1Cc2c(O)cc(O)cc2O[C@@H]1c1cc(O)c(O)c(O)c1)c1cc(O)c(O)c(O)c1 [EGCG, (−)-Epigallocatechin-3-gallate] | markedly reduced | less than 30 minutes | – | – | – | –
2 | CCN(CC)CCNC(=O)c1c(C)[nH]c(/C=C2\C(=O)Nc3ccc(F)cc32)c1C [SU, Sunitinib] | – | – | significant weight loss | too toxic | not observed | significant weight loss

Source: patent US10463646B2, “Micellar polymer-flavonoid conjugate nanocomplex” (Agency for Science, Technology and Research, priority 2014, dated 2019)
